Series [1] deals with MDA-MB-231. The series can be described thus: Antiproliferative activity against human MDA-MB-231 cells assessed as cell growth inhibition incubated for 48 hrs by MTT assay. To be noted: MDA-MB-231, 48 h. The format is functional, cell-based.
A short description of series [2]: Inhibition of CDK9/cyclin T (unknown origin) using […] incubated for 40 mins in presence of ATP by Kinase-Glo assay. Also noted: species or system Homo sapiens. On the technique in general: Kinase-Glo measures the ATP left after a reaction by luminescence.
Series [3] has as its system MV4-11. The series can be described thus: Antiproliferative activity against human MV4-11 cells assessed as cell growth inhibition incubated for 48 hrs by MTT assay. The note with it: MV4-11, 48 h. The format is functional, cell-based. A general note: Formazan colour is commonly taken as a measure of viable cells.
The test system of series [4] is MCF7. The series can be described thus: Antiproliferative activity against human MCF7 cells assessed as cell growth inhibition incubated for 48 hrs by MTT assay. The class given is functional, cell-based. The note with it: MCF7, 48 h.
A short description of series [5]: Inhibition of CDK1/cyclin B (unknown origin) using […] incubated for 40 mins in presence of ATP by Kinase-Glo assay. Also noted: species or system Homo sapiens.
Series [6] is described as follows: Antiproliferative activity against HEK293 cells assessed as cell growth inhibition incubated for 48 hrs by MTT assay. The class given is toxicity, cell-based. The note with it: human.
The test system of series [7] is HepG2. As to the kind of experiment: Antiproliferative activity against human HepG2 cells assessed as cell growth inhibition incubated for 48 hrs by MTT assay. The class given is functional, cell-based. The note with it: HepG2, 48 h.
In series [8] the test system is U-87 MG. As to the kind of experiment: Antiproliferative activity against human U-87 MG cells assessed as cell growth inhibition incubated for 48 hrs by MTT assay. The format is functional, cell-based, U-87MG ATCC.
Series [9] relates to HT-29. The series can be described thus: Antiproliferative activity against human HT-29 cells assessed as cell growth inhibition incubated for 48 hrs by MTT assay. The class given is functional, cell-based. The note with it: HT-29, 48 h.
For series [10], the system named is A2780. The series can be described thus: Antiproliferative activity against human A2780 cells assessed as cell growth inhibition incubated for 48 hrs by MTT assay. The class given is functional, cell-based. To be noted: A2780, 48 h.
Series [11] deals with HCT-116. As to the kind of experiment: Cytotoxicity against human HCT-116 cells assessed as cell growth inhibition incubated for 48 hrs by MTT assay. The class given is functional, cell-based. The note with it: HCT-116, 48 h.
The subject of series [12] is A549. As to the kind of experiment: Antiproliferative activity against human A549 cells assessed as cell growth inhibition incubated for 48 hrs by MTT assay. To be noted: A549, 48 h. The format is functional, cell-based.
The test system of series [13] is HeLa. The series can be described thus: Antiproliferative activity against human HeLa cells assessed as cell growth inhibition incubated for 48 hrs by MTT assay. The format is functional, cell-based.
Series [14] addresses Cyclin-dependent kinase 2/cyclin A (Homo sapiens, UniProt P24941). As to the kind of experiment: Inhibition of CDK2/cyclin A (unknown origin) using […] incubated for 40 mins in presence of ATP by Kinase-Glo assay. The format is protein-complex assay.
For series [15], the target named is Glycogen synthase kinase-3 alpha (Homo sapiens) (UniProt P49840). The series can be described thus: Inhibition of GSK3-alpha (unknown origin) at 1 uM relative to control.
For series [16], the species on record is Homo sapiens. As to the kind of experiment: Inhibition of c-Src (unknown origin) at 1 uM relative to control.
Series [17] has as its target Aurora kinase A (Homo sapiens) (UniProt O14965). As to the kind of experiment: Inhibition of Aurora A (unknown origin) at 1 uM relative to control.

Where only a bound is given, the exact number is not on record here.

Chain of Glycogen synthase kinase-3 alpha (Homo sapiens) (P49840 2-483 limits assumed): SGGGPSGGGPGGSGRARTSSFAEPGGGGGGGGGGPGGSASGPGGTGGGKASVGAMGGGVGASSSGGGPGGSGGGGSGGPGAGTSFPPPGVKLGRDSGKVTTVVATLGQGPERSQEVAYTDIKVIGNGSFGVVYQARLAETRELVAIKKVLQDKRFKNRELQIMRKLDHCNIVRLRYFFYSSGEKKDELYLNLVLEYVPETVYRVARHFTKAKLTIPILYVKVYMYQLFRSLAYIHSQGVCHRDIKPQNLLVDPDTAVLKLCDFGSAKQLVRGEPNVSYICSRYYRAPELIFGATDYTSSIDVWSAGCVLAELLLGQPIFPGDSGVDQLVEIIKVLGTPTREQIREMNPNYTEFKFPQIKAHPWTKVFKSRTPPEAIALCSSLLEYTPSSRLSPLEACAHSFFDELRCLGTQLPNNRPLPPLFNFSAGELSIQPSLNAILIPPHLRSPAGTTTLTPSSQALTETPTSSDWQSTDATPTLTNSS
Chain of Aurora kinase A (Homo sapiens) (O14965 whole entry): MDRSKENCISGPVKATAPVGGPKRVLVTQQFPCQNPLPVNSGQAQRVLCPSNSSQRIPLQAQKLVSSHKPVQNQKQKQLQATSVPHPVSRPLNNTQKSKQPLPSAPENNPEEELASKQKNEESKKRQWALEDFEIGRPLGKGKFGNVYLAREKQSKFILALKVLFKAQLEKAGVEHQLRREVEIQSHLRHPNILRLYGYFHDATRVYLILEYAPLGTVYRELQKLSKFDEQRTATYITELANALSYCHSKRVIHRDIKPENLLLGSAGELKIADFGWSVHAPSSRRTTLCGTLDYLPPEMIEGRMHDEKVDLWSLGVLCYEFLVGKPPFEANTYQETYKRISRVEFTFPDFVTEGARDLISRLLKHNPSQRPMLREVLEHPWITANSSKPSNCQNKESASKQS

In the case of `CCOC(=O)CNc1ccnc(Nc2ccc(OC)cc2)n1`, the IC50 was 32.6 µM in series [1]; 26.1 µM in series [2]; 28.1 µM in series [3]; > 30 µM in series [4]; > 30 µM in series [5]; > 30 µM in series [7]. The IC50 in series [8] is > 30 µM; in series [9] it was > 30 µM; in series [10], > 30 µM; in series [11], > 10 µM; in series [12], > 30 µM; in [13] it was 29.3 µM. Further, the IC50 in [14] was 4.09 µM. In [6], the IC50 at 48 h came out at 126 µM.
On to `Cc1ncc(-c2ccnc(Nc3ccc(S(C)(=O)=O)cc3)n2)n1C(C)C` [AZD-5438], for which the inhibition in [15], in series [16] and in [17] was > 50% in each case. In addition, the IC50 in [1] was 0.151 µM; in series [2] it was 0.018 µM; in series [3] it was 2.08 µM; in series [7], 12.4 µM; in series [8], > 30 µM; in [9], 1.16 µM. Moreover, the values for the IC50 in [10], in series [11] and in [12] were 1.26 µM, 0.477 µM and 1.47 µM, respectively. Also, the IC50 at 48 h in [6] was found to be 18 µM.

Broadly, the IC50 is the concentration needed to halve the response being measured. One may read the inhibition as how much of the control response was suppressed. High values mean a strong effect, low ones a weak effect.

For the origin of these results see ChEMBL document CHEMBL6096697, “Structure-Guided Discovery of Novel N4-(Substituted Thiazol-2-yl)-N2-(4-Substituted phenyl)pyrimidine-2,4-Diamines as Potent CDK2 and CDK9 Dual Inhibitors with High Oral Bioavailability” (J Med Chem, 2025).
